Patent US20260248087A1, “GENERATING DOUBLED HAPLOID PLANTS” (Syngenta Crop Protection AG, priority 2023, published 2026)
Values joined by “and” are separate entries in the source; they are usually repeats but may differ in a detail not shown here. Identical values can stand only once.

Assays:
corn embryos = assay: Uptake of metcamifen and metabolism of colchicine in corn embryos (LCMS); type: in vitro ADME
Description: An experiment was completed to evaluate the uptake of metcamifen into corn embryos, whether colchicine is metabolized in the embryos, and if metcamifen increased the rate of colchicine metabolism. Corn embryos were co-treated with 500 ppm colchicine in the presence of 200 ppm, 1000 ppm or no metcamifen (control) for 24 or 48 hours and frozen. One biological replicate was represented by five embryos, and three biological replicates were used per co-treatment.
Prior to extraction, embryos were washed for 20 seconds in 80:20 (v/v) acetonitrile:H2O to remove any colchicine and metcamifen on the surface. Each replicate was extracted in 0.5 ml methanol using a fast prep maceration method. Then, samples were diluted 1 in 10 prior to analysis by Liquid Chromatography Mass Spectrometry (LCMS). Samples were analyzed alongside matrix matched standards of colchicine and metcamifen. Metabolite investigations were performed to identify any metabolites.

embryos from maize ears [1] = assay: Potting and transplant rate, co-treatment with metcamifen and thiamethoxam during colchicine doubling; type: in vivo
Text: (§1) As used herein, the term “potted rate” or “potting rate” refers to the percent of germinated embryos successfully transferred to soil from total treated haploid embryos. The “potted rate” is used as an indication of plant health in monitoring the success of recovery and growth after treatment of haploids. As used herein, the term “transplant rate” refers to the survival of healthy plants after embryos were germinated and transferred to soil.
(§2) To assess the impact of the safener and vigor enhancing compounds on the full DH production pipeline, experiments were designed and conducted spanning haploid embryo isolation, doubling treatment, germination, potting, growth to maturity, selfing, and seed set evaluation. Embryos from maize ears of two genotypes were isolated and co-treated with both metcamifen and thiamethoxam during the colchicine doubling treatment, in triplicate. Metcamifen was added in the Murashige and Skoog Medium (MS medium) at concentrations ranging from 400 to 800 mg/L in combination with TMX at concentrations ranging from 4000 to 6000 mg/L. Control co-treatments with metcamifen alone, TMX alone, or colchine-only were run in parallel. Concentrations for co-treatments were selected based on best outcomes from experiments in Examples 1-8. The co-treatments incubated for 24 and 48 hours at 28° C. with 150 PAR light. Resulting embryos were germinated and the percentage of embryos successfully transferred to soil was measured as the potting rate. The survival of healthy plants was measured as the transplant rate.

embryos from maize ears [2] = assay: Ear kernel setting rates and DH yield after co-treatment with metcamifen and thiamethoxam; type: in vivo; details: for Ears >4 Rate Mean / Ears >49 Rate Mean: co-treatment with colchicine
Description: as §2, with “transplant rate. […]” for “transplant rate.”
One way of measuring the success of DH production is a ratio of output:input, defined as “DH yield”, where a larger ratio is typically desirable for a more efficient production system. In this study, we measured this in two ways: DH ears/total haploid embryos and DH ears/transplants (see Table 15).

GST27 = GST27 induction, metcamifen and thiamethoxam co-treatment in liquid medium; type: cell-based, maize
Description: For the examples below, GST27 was used as a quick indicator for treatment effectiveness.
(§3) Isolated embryos were placed in a Petri dish on filter paper wetted with liquid Murashige and Skoog Medium (MS medium) containing colchicine and a formulation of metcamifen at 800 mg/L, TMX at 4000 mg/L, or a combination of 800 mg/L metcamifen and 4000 mg/L TMX. The colchicine treatment control used the same conditions except with a medium containing 3.5 g/L Gelzan as compared to the liquid medium without Gelzan. The co-treatments incubated for 24 or 48 hours at 28° C. with 150 PAR light and were conducted on 2 genotypes with 2 replicates. The effects on GST expression, potting rate, and transplant rate are reported (see Table 16). The rate of diploid escapes observed increased to 6.4-8.5% in the 24-hour co-treatments with 4000 mg/L TMX and 4000 mg/L TMX combined with 800 mg/L metcamifen. In all other co-treatments, the escape rate was 0%. […] The best transplant rates observed were in the 24-hour duration 4000 mg/L TMX co-treatment (90%) compared to the control (72%).
(§4) In a separate experiment, additional concentrations of metcamifen and TMX co-treatment were tested in liquid co-treatments. The experimental setup was the same as described above for the data in Table 16, but the co-treatment concentrations were varied. […] The decreased concentrations were associated with lower rates of escapes in the 24-hour co-treatments, only the metcamifen with TMX combination co-treatment produced escapes (1.8%). Potting and transplant rates remained high, with the best performance in the 24-hour metcamifen with TMX combination co-treatment (96% potting, and 87% transplant) compared to the colchicine-only control (60% potting, and 47% transplant) (see Table 17). In all liquid media co-treatments, higher rates of bacterial and/or fungal contamination were observed. In total, 35% of the attempted experiments were discarded due to contamination issues and excluded from the data analysis.

isolated embryos = assay: Potting and transplant rate, metcamifen and thiamethoxam co-treatment in liquid medium; type: in vivo, maize
Text: as §1, §3, §4

[3] = Table 16, liquid medium: metcamifen 800 mg/L, 24 Hour
[4] = Table 16, liquid medium: metcamifen 800 mg/L, 48 Hour
[5] = Table 17, liquid medium: metcamifen 800 mg/L, 24 Hour
[6] = Table 17, liquid medium: metcamifen 800 mg/L, 48 Hour
[7] = Table 16, liquid medium: TMX 4000 mg/L, 24 Hour
[8] = Table 16, liquid medium: TMX 4000 mg/L, 48 Hour
[9] = Table 17, liquid medium: TMX 4000 mg/L, 24 Hour
[10] = Table 17, liquid medium: TMX 6000 mg/L, 48 Hour

SMILES: CNC(=O)Nc1ccc(S(=O)(=O)NC(=O)c2ccccc2OC)cc1 [Metcamifen, metcamifen]
- effect of metcamifen on amount of colchicine recovered (corn embryos; 500 ppm colchicine with 200 or 1000 ppm metcamifen): did not reduce the amount of colchicine recovered
- metcamifen in embryo extracts (uptake) (corn embryos; co-treated with 500 ppm colchicine and 200 or 1000 ppm metcamifen, 24 and 48 hours): could be detected
- recovery amount of colchicine metabolite (−14, O-demethylation) (corn embryos; duration and metcamifen co-treatment): increased
- Potted Rate Mean (embryos from maize ears [1]; metcamifen 800 mg/L, 24 hours): 76%
- Transplant Rate Mean (embryos from maize ears [1]; metcamifen 800 mg/L, 24 hours): 68%
- Potted Rate Mean (embryos from maize ears [1]; metcamifen 800 mg/L, 48 hours): 15%
- Transplant Rate Mean (embryos from maize ears [1]; metcamifen 800 mg/L, 48 hours): 15%
- Ears >4 Rate Mean (embryos from maize ears [2]; metcamifen 800 mg/L, 24 hours): 38%
- Ears >49 Rate Mean (embryos from maize ears [2]; metcamifen 800 mg/L, 24 hours): 24%
- Ears >4 Rate Mean (embryos from maize ears [2]; metcamifen 800 mg/L, 48 hours): 9%
- Ears >49 Rate Mean (embryos from maize ears [2]; metcamifen 800 mg/L, 48 hours): 4%
- Ears >4 DH Yield, DH Ears/Total Haploids, Mean (embryos from maize ears [2]; metcamifen 800 mg/L, 24 hours): 0.33
- Ears >4 DH Yield, DH Ears/Transplants, Mean (embryos from maize ears [2]; metcamifen 800 mg/L, 24 hours): 0.47
- Ears >49 DH Yield, DH Ears/Total Haploids, Mean (embryos from maize ears [2]; metcamifen 800 mg/L, 24 hours): 0.21
- Ears >49 DH Yield, DH Ears/Transplants, Mean (embryos from maize ears [2]; metcamifen 800 mg/L, 24 hours): 0.30
- Ears >4 DH Yield, DH Ears/Total Haploids, Mean (embryos from maize ears [2]; metcamifen 800 mg/L, 24 hours, listed as metcamifen): increased significantly
- Ears >4 DH Yield, DH Ears/Total Haploids, Mean (embryos from maize ears [2]; metcamifen 800 mg/L, 48 hours): 0.07
- Ears >4 DH Yield, DH Ears/Transplants, Mean (embryos from maize ears [2]; metcamifen 800 mg/L, 48 hours): 0.61
- Ears >49 DH Yield, DH Ears/Total Haploids, Mean (embryos from maize ears [2]; metcamifen 800 mg/L, 48 hours): 0.03
- Ears >49 DH Yield, DH Ears/Transplants, Mean (embryos from maize ears [2]; metcamifen 800 mg/L, 48 hours): 0.25
- GST27 Induction After (GST27; [3]): 270 ng/mg TSP
- GST27 Induction Before (GST27; [3]): 0 ng/mg TSP
- GST27 Induction After (GST27; [4]): 396 ng/mg TSP
- GST27 Induction Before (GST27; [4]): 0 ng/mg TSP
- GST27 Induction After (GST27; [5]): 263 ng/mg TSP
- GST27 Induction Before (GST27; [5]): 0 ng/mg TSP
- GST27 Induction After (GST27; [6]): 340 ng/mg TSP
- GST27 Induction Before (GST27; [6]): 4 ng/mg TSP
- Potting Rate Mean (isolated embryos; [3]): 92.5%
- Transplant Rate Mean (isolated embryos; [3]): 88.2%
- Potting Rate Mean (isolated embryos; [4]): 21.5%
- Transplant Rate Mean (isolated embryos; [4]): 20.4%
- Potting Rate Mean (isolated embryos; [5]): 86.2%
- Transplant Rate Mean (isolated embryos; [5]): 74.1%
- Potting Rate Mean (isolated embryos; [6]): 9.2%
- Transplant Rate Mean (isolated embryos; [6]): 9.2%

SMILES: CN1COCN(Cc2cnc(Cl)s2)/C1=N\[N+](=O)[O-] [TMX, thiamethoxam]
- Potted Rate Mean (embryos from maize ears [1]; TMX 4000 mg/L, 48 hours): 79%
- Transplant Rate Mean (embryos from maize ears [1]; TMX 4000 mg/L, 48 hours): 77%
- Potted Rate Mean (embryos from maize ears [1]; TMX 6000 mg/L, 24 hours): 95%
- Transplant Rate Mean (embryos from maize ears [1]; TMX 6000 mg/L, 24 hours): 93%
- Ears >4 DH Yield, DH Ears/Total Haploids, Mean (embryos from maize ears [2]; TMX 4000 mg/L, 48 hours): 0.29
- Ears >4 DH Yield, DH Ears/Transplants, Mean (embryos from maize ears [2]; TMX 4000 mg/L, 48 hours): 0.37
- Ears >49 DH Yield, DH Ears/Total Haploids, Mean (embryos from maize ears [2]; TMX 4000 mg/L, 48 hours): 0.12
- Ears >49 DH Yield, DH Ears/Transplants, Mean (embryos from maize ears [2]; TMX 4000 mg/L, 48 hours): 0.16
- Ears >4 DH Yield, DH Ears/Transplants, Mean (embryos from maize ears [2]; TMX 6000 mg/L, 24 hours): 0.44
- Ears >49 DH Yield, DH Ears/Total Haploids, Mean (embryos from maize ears [2]; TMX 6000 mg/L, 24 hours): 0.20
- Ears >49 DH Yield, DH Ears/Transplants, Mean (embryos from maize ears [2]; TMX 6000 mg/L, 24 hours): 0.21
- Ears >4 Rate Mean (embryos from maize ears [2]; TMX 4000 mg/L, 48 hours): 30%
- Ears >49 Rate Mean (embryos from maize ears [2]; TMX 4000 mg/L, 48 hours): 13%
- Ears >4 Rate Mean (embryos from maize ears [2]; TMX 6000 mg/L, 24 hours): 45%
- Ears >49 Rate Mean (embryos from maize ears [2]; TMX 6000 mg/L, 24 hours): 24%
- GST27 Induction After (GST27; [7]): 255 ng/mg TSP
- GST27 Induction Before (GST27; [7]): 0 ng/mg TSP
- GST27 Induction After (GST27; [8]): 194 ng/mg TSP
- GST27 Induction Before (GST27; [8]): 1 ng/mg TSP
- GST27 Induction After (GST27; [9]): 193 ng/mg TSP
- GST27 Induction Before (GST27; [9]): 5 ng/mg TSP
- GST27 Induction After (GST27; [10]): 208 ng/mg TSP
- GST27 Induction Before (GST27; [10]): 13 ng/mg TSP
- Potting Rate Mean (isolated embryos; [7]): 92.3%
- Transplant Rate Mean (isolated embryos; [7]): 90% and 89.7%
- Potting Rate Mean (isolated embryos; [8]): 79.4%
- Transplant Rate Mean (isolated embryos; [8]): 72.2%
- Potting Rate Mean (isolated embryos; [9]): 77.3%
- Transplant Rate Mean (isolated embryos; [9]): 81.3%
- Potting Rate Mean (isolated embryos; [10]): 58.0%
- Transplant Rate Mean (isolated embryos; [10]): 54.0%
